The values that follow come from patent publication US20110184147A1, “ENZYME SUBSTRATE FOR LABELING OF PROTEIN” (priority 2008, published 2011).

The target in assay [1] is T1, MTG (Streptomyces mobaraensis, UniProt P81453).
T1 construct: purchased AJINOMOTO (supplied as a gift)
As to the kind of experiment: MTG-catalyzed introduction of fluorescent substrates into NK6-AP (SDS-PAGE, fluorescent imager). Format: biochemical, microbial. How it is done: To perform a binding reaction, the fluorescent substrate (FITC-ε-Acp-QG, FITC-β-Ala-QG, Flc-QG, TR-β-Ala-QG or Dns-ε-Acp-QG), NK6-AP and MTG were added to 10 mM Tris-HCl (pH 8) to give respective final concentrations of 1 mM, 0.5 mg/ml and 1 U/ml and they were thoroughly agitated and the resulting solution was left to stand overnight at 4° C. For the purpose of comparison, an MTG-free sample was prepared.
After the reaction, the samples were subjected to SDS-polyacrylamide gel electrophoresis (SDS-PAGE). The gel from SDS-PAGE was examined with a fluorescent imager before it was stained with Coomassie Brilliant Blue (CBB) in solution. For the sample containing Dns-ε-Acp-QG, examination was made with a transilluminator.
A study was made using FITC-β-Ala-QG as a fluorescent substrate. The reaction conditions for introducing FITC-β-Ala-QG into NK6-AP were as follows: FITC-β-Ala-QG, NK6-AP and MTG were added to 10 mM Tris-HCl (pH 8) to give respective final concentrations of 0.1 mM, 0.5 mg/ml and 0.1 U/ml and they were thoroughly agitated at 4° C. for 0-5 hours. To trace the binding, the gel from SDS-PAGE was analyzed by a fluorescent imager.
A study was made using FITC-β-Ala-QG as a fluorescent substrate. The reaction conditions for introducing FITC-β-Ala-QG into NK6-AP were as follows: FITC-β-Ala-QG, NK6-AP and MTG were added to 10 mM Tris-HCl (pH 8) to give respective final concentrations of 1-1000 μM, 0.5 mg/ml and 0.1 U/ml and they were thoroughly agitated at 4° C. for 15 minutes. Tracing on the sample after the reaction was performed by the same procedure as in Experiment 2-4.
Dns-β-Ala-QG-biotin, NK6-AP and MTG were added to 20 mM Tris-HCl (pH 8) to give respective final concentrations of 100 μM, 0.5 mg/ml, and 1 U/ml. For the purpose of comparison, an MTG-free sample was prepared. The ingredients were thoroughly agitated and the resulting solution was left to stand overnight at 4° C. for reaction.
After the reaction, the samples were subjected to SDS-polyacrylamide gel electrophoresis (SDS-PAGE). The gel from SDS-PAGE was examined with a transilluminator before it was stained with Coomassie Brilliant Blue (CBB) in solution.
To a 50 mM buffer whose pH was varied over the range of from 5 to 9, FITC-β-Ala-QG, NK6-AP and MTG were added to give respective final concentrations of 0.1 mM, 0.5 mg/ml, and 0.1 U/ml. These ingredients were well stirred and left to stand at 4° C. for reaction. After 6-hr or 15-minute reaction, the sample was mixed with a sample buffer and heated at 95° C. for 15 minutes to stop the reaction. Thereafter, SDS-polyacrylamide gel electrophoresis (SDS-PAGE) was applied. The gel from SDS-PAGE was stained with Coomassie Brilliant Blue (CBB) and observed with a fluorescent imager.
To 50 mM Tris-HCl (pH 8), FITC-β-Ala-QG, NK6-AP and MTG were added to give respective final concentrations of 0.1 mM, 0.5 mg/ml, and 0.001-1 U/ml. These ingredients were well stirred and left to stand at 4° C. for reaction. The reaction was stopped and evaluation was made by the same procedures as in Experiment 2-2.
To 50 mM Tris-HCl (pH 8), FITC-β-Ala-QG-alkyne, NK6-AP and MTG were added to give respective final concentrations of 0.1 mM, 0.5 mg/ml, and 0.1 U/ml. For the purpose of comparison, a MTG-free sample was also prepared. Both samples were well stirred and left to stand at 4° C. for reaction. The reaction was stopped and evaluation was made by the same procedures as in Experiment 2-2.

Assay [2] deals with T1, MTG. The assay can be described thus: MTG-catalyzed introduction of fluorescent substrates into anti-lysozyme IgG2a antibody. Type of assay: biochemical, microbial. As to conditions: substrate 1 mM, mouse anti-lysozyme IgG2a 0.5 mg/ml, MTG 1 U/ml, pH 7, overnight 4° C.; reduced SDS-PAGE. As to the method:
A fluorescent substrate (FITC-ε-Acp-QG, FITC-β-Ala-QG, TR-β-Ala-QG or […]), mouse-derived anti-lysozyme IgG2a antibody (monoclonal) and MTG were added to a 10 mM phosphate buffer (pH 7) to give respective final concentrations of 1 mM, 0.5 mg/ml and 1 U/ml. For the purpose of comparison, an MTG-free sample was prepared. The ingredients were thoroughly agitated and the resulting solution was left to stand overnight at 4° C.
After the reaction, the samples were subjected to SDS-PAGE. The gel from SDS-PAGE was examined with a fluorescent imager before it was stained with a CBB dye solution. For the Dns-ε-Acp-QG containing sample, examination was made with a transilluminator.

Setting [3] is: NK6-AP 0.5 mg/ml, MTG 0.1 U/ml, pH 8, 4° C., 15 minutes.

“Also recorded” adds a separate entry of the source.

T1 sequence (P81453 77-407): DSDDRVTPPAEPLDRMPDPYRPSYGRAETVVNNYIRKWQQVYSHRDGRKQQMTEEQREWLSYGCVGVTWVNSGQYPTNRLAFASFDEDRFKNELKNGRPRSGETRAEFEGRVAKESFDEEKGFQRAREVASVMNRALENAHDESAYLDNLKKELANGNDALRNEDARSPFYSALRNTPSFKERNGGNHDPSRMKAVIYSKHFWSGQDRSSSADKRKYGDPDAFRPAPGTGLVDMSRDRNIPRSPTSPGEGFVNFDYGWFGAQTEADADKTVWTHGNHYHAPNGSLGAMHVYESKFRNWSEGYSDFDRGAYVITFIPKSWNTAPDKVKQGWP

As for `NC(=O)CCC(NC(=O)CCNC(=S)Nc1ccc(-c2c3ccc(=O)cc-3oc3cc(O)ccc23)c(C(=O)O)c1)C(=O)NCC(=O)O` (stereo not drawn) [FITC-β-Ala-QG], on MTG [1] (6-hr reaction, pH 5 to 9, substrate 0.1 mM, MTG 0.1 U/ml, 4° C.), the “pH range with comparable levels of fluorescent intensity (reaction saturated)” value is reported as 5-8. The “pH of rapid introduction into NK6-AP” value at MTG [1] (15-min reaction, pH 5 to 9, substrate 0.1 mM, MTG 0.1 U/ml, 4° C.) is “rapid introduction was achieved at pH values of 6 and 8”. On MTG [1] (setting [3]), the “Maximum substrate concentration at which reaction progressed” value is reported as 1 mM; the “Minimum substrate concentration at which reaction progressed and detection was possible” value came out at 1 µM. In addition, on MTG [1] (NK6-AP, substrate 0.1 mM, pH 8, 4° C.), the “Degree of introduction into NK6-AP at 1 U MTG” value is reported as “did not drop”. The “MTG concentration at which an adequately rapid reaction proceeded” value at MTG [1] (NK6-AP, substrate 0.1 mM, pH 8, 4° C., MTG 0.001-1 U/ml) was found to be 0.1 U. At MTG [1] (substrate 1 mM, NK6-AP 0.5 mg/ml, MTG 1 U/ml, 10 mM Tris-HCl pH 8, overnight 4° C.), the “Reactivity of MTG for fluorescent substrate (introduction into NK6-AP)” value is “served as substrates of MTG; also recorded: recognizable as a substrate of MTG”. At MTG [2], the “Reactivity of antibody with fluorescent substrate by MTG catalysis” value is “H chains of the antibody are modified”.
